In ChEMBL document CHEMBL5346961, “Discovery and Evaluation of 3-Quinoxalin Urea Derivatives as Potent, Selective, and Orally Available ATM Inhibitors Combined with Chemotherapy for the Treatment of Cancer via Goal-Oriented Molecule Generation and Virtual Screening” (J Med Chem, 2023) one finds AUCt and Activity data, which are given here for 1 compound.

The nature of data set [1]: AUC (0 to t) in Balb/C mouse at 10 mg/kg,po measured upto 48 hrs by LC-MS/MS analysis. It is filed as ADME, organism-based. Further details: dose 10 mg/kg, time < 48 hrs, route po. The settings on record: in vivo.
The next data set concerns SW-620. As to the kind of experiment: Antitumor activity against human SW620 cells xenografted in BALB/c nude mouse model assessed as tumor growth inhibition administered orally once daily for 3 days weekly after irinotecan post treatment for 21 days by caliper method. In kind it is functional, cell-based. The settings on record: dose 20-40 mg/kg, route po, time 21.0 day. In general terms: Xenograft models place foreign cells or tissue in a host animal.

Data set [2] can be described thus: AUC (0 to t) in Balb/C mouse at 10 mg/kg,iv measured upto 48 hrs by LC-MS/MS analysis. In kind it is ADME, organism-based. Details: time < 48 hrs, dose 10 mg/kg, route iv. The settings on record: in vivo.

In the case of `CC(C)NC(=O)N(C)c1cnc2ccc(-c3ccc(OCCCN4CCCCC4)nc3)cc2n1`, the AUCt amounted to 13952.23 ng·h/mL in data set [1] and 13027.01 ng·h/mL in data set [2]. Further, in the data set with SW-620, the Activity result is “Dose-Dependent Effect”.
